{"source": "paper PMC6193035", "about": "“Novel small molecules affecting cell membrane as potential therapeutics for avian pathogenic Escherichia coli” (Scientific Reports, 2018)", "key": {"[1]": {"tested_on": "intracellular APEC O78, O2, and O1 in infected Caco-2, HD11, and THP1 cells", "test": "Intracellular survival assay, statements over all serotypes and cells", "type": "cell-based, Escherichia coli", "details": "Escherichia coli, 6 h, O78, O2 and O1; Caco-2, HD11, THP-1; 6 h; read-out: concentration clearing intracellular APEC", "procedure": "(§1) Intracellular survival assay was conducted as described previously[28],[29] to determine the effect of cidal SMs on APEC survival in phagocytic (HD11, THP-1) and non-phagocytic (Caco-2) cells. Briefly, mid-logarithmic phase grown APEC O78, O1, and O2 were washed and adjusted to 1 × 10^7 CFU/mL in cell culture incomplete media (no FBS and antibiotics). One-hundred microlitres adjusted APEC suspension was added at multiplicity of infection (MOI) 10 to wells of 96-well cell culture plate containing cultured macrophage (HD11, THP-1) and epithelial cells (Caco-2) and incubated for 1 h and 3 h, respectively. […] The cells were then lysed with 100 µL of 0.1% Triton X-100 for 5 mins, serially diluted, and plated on LB agar plate to enumerate viable bacteria. The intracellular bacteria in SMs treated wells were compared with DMSO (1%) treated wells. Two independent experiments in duplicate wells for each concentration of SMs were conducted."}, "[2]": {"tested_on": "APEC O78", "test": "Loss of 260/280 nm absorbing materials assay", "type": "cell-based, Escherichia coli", "details": "2X MBC, 1 h", "procedure": "Membrane permeability assays (crystal violet (CV) uptake and loss of 260/280 nm absorbing materials) were conducted as described previously. […] CV uptake was measured using the formula: (OD DMSO − OD SM/OD DMSO × 100). Two independent experiments in duplicates were conducted."}, "[3]": {"tested_on": "APEC O115", "test": "MIC and MBC determination in M63 media", "type": "cell-based", "details": "Escherichia coli"}, "[4]": {"tested_on": "APEC O2", "test": "MIC and MBC determination in M63 media", "type": "cell-based", "details": "Escherichia coli"}, "[5]": {"tested_on": "APEC O78", "test": "MIC and MBC determination in M63 media", "type": "cell-based, Escherichia coli", "procedure": "(§2) One microlitre SM of each concentration was transferred to each well of a 96-well plate containing 100 µL of the 0.05 OD600 adjusted APEC O78 culture in M63 media. Growth was monitored in Sunrise - Absorbance microplate reader as described above. MIC was indicated by lowest concentration of SM with non-elevated OD600 measurement. MBC was determined by absence of APEC growth on LB agar plate following subculture. […] Two independent experiments were conducted."}, "[6]": {"tested_on": "APEC O78-53", "test": "MIC and MBC determination in M63 media", "type": "cell-based", "details": "Escherichia coli; APEC O78-53, M63 media", "procedure": "as §2"}, "[7]": {"tested_on": "intracellular APEC O2 in Caco-2 cells", "test": "Intracellular survival assay", "type": "cell-based, Escherichia coli", "procedure": "as §1"}, "[8]": {"tested_on": "intracellular APEC O2 in HD11 cells", "test": "Intracellular survival assay", "type": "cell-based, Escherichia coli", "procedure": "as §1"}, "[9]": {"tested_on": "intracellular APEC O78 in HD11 cells", "test": "Intracellular survival assay", "type": "cell-based, Escherichia coli", "procedure": "as §1"}, "[10]": {"tested_on": "intracellular APEC O78 in Caco-2 cells", "test": "Intracellular survival assay", "type": "cell-based, Escherichia coli", "procedure": "as §1"}, "[11]": {"tested_on": "intracellular APEC O78 in THP-1 cells", "test": "Intracellular survival assay", "type": "cell-based, Escherichia coli", "procedure": "as §1"}, "[12]": {"tested_on": "intracellular APEC O1 in HD11 cells", "test": "Intracellular survival assay", "type": "cell-based, Escherichia coli", "procedure": "as §1"}, "[13]": {"tested_on": "intracellular APEC O2 in THP-1 cells", "test": "Intracellular survival assay", "type": "cell-based, Escherichia coli", "procedure": "as §1"}, "[14]": {"tested_on": "intracellular APEC O1 in THP-1 cells", "test": "Intracellular survival assay", "type": "cell-based, Escherichia coli", "procedure": "as §1"}, "[15]": {"tested_on": "intracellular APEC O1 in Caco-2 cells", "test": "Intracellular survival assay", "type": "cell-based, Escherichia coli", "procedure": "as §1"}, "[16]": {"tested_on": "biofilm embedded APEC O78", "test": "MBEC High-throughput (HTP) assay", "type": "cell-based, Escherichia coli", "procedure": "The effect of cidal SMs against biofilm embedded APEC was determined using MBEC High-throughput (HTP) assay (Innovotech Inc., AB, Canada)[22]. Briefly, 150 μL of 0.05 OD600 adjusted APEC O78 culture was aliquoted into each well of the MBEC device containing polystyrene pegs and incubated at 37 °C for 36 h in LB media under stationary condition. […] The plate was incubated in the dark for 18 h at 37 °C with rotation at 110 rpm. The DMSO (1%) and […] media were used as positive and negative controls, respectively. Following incubation, MIC of SMs in challenged plate was recorded. The SMs exposed pegs were then transferred to a new 96-well plate containing PBS and sonicated for 30 mins (Aquasonic ultrasonic cleaner, VWR) to disrupt the biofilm. The sonicated suspensions were ten-fold serially diluted and plated on LB agar plate. Biofilm embedded APEC bacteria were enumerated and minimum biofilm eradication concentration (MBEC) of SMs were determined as described previously. Two independent experiments were conducted."}}, "note": "Marks after values point to notes of the source that are not given here."}
{"compound": "COc1ccc(CCN(Cc2cc3c(cc2Cl)OCO3)CC2CCN(C)CC2)cc1", "note": "[SM11]", "values": [{"measurement": "minimal effective concentration", "setting": "[1]", "value": "≥ 100", "unit": "µM"}, {"measurement": "260 nm absorbing materials in supernatant compared with DMSO", "setting": "[2]", "value": "significantly (P < 0.05, Student’s t-test) increased"}, {"measurement": "280 nm absorbing materials in supernatant compared with DMSO", "setting": "[2]", "value": "significantly (P < 0.05, Student’s t-test) increased"}, {"measurement": "Absorbance 280 nm of treated supernatant", "setting": "[2]; DMSO 2.58, superscript a P < 0.05 vs DMSO", "value": "2.89^a"}, {"measurement": "Absorbance 260 nm of treated supernatant", "setting": "[2]; DMSO 3.77, superscript a P < 0.05 vs DMSO", "value": "4.00^a"}, {"measurement": "MBC", "setting": "[3]", "value": 200, "unit": "µM"}, {"measurement": "MIC", "setting": "[3]", "value": 200, "unit": "µM"}, {"measurement": "MBC", "setting": "[4]", "value": 200, "unit": "µM"}, {"measurement": "MIC", "setting": "[4]", "value": 100, "unit": "µM"}, {"measurement": "MBC relative to MIC", "setting": "[5]", "value": "identical to MIC"}, {"measurement": "MIC", "setting": "[5]; Escherichia coli", "value": 100, "unit": "µM"}, {"measurement": "MBC", "setting": "[5]; Escherichia coli, subculture on LB agar", "value": 100, "unit": "µM"}, {"measurement": "MBC", "setting": "[6]", "value": 200, "unit": "µM"}, {"measurement": "MIC", "setting": "[6]", "value": 100, "unit": "µM"}, {"measurement": "minimal effective concentration", "setting": "[7]; Escherichia coli, O2, Caco-2, 6 h treatment, read-out: SMs intracellular APEC clearance concentration", "value": 200, "unit": "µM"}, {"measurement": "intracellular APEC clearance concentration as multiple of MIC (superscript)", "setting": "[7]; O2, Caco-2", "value": "b (2X MIC)"}, {"measurement": "concentration at which the SM significantly (P < 0.01) reduced intracellular APEC (superscript of t-statistic)", "setting": "[7]; O2, Caco-2, 6 h", "value": "b (1X MIC)"}, {"measurement": "minimal effective concentration", "setting": "[8]; Escherichia coli, O2, HD11, 6 h treatment, read-out: SMs intracellular APEC clearance concentration", "value": 200, "unit": "µM"}, {"measurement": "intracellular APEC clearance concentration as multiple of MIC (superscript)", "setting": "[8]; O2, HD11", "value": "b (2X MIC)"}, {"measurement": "concentration at which the SM significantly (P < 0.01) reduced intracellular APEC (superscript of t-statistic)", "setting": "[8]; O2, HD11, 6 h", "value": "a (0.5X MIC)"}, {"measurement": "minimal effective concentration", "setting": "[9]; Escherichia coli, O78, HD11, 6 h treatment, read-out: SMs intracellular APEC clearance concentration", "value": 100, "unit": "µM"}, {"measurement": "intracellular APEC clearance concentration as multiple of MIC (superscript)", "setting": "[9]; O78, HD11", "value": "a (1X MIC)"}, {"measurement": "concentration at which the SM significantly (P < 0.01) reduced intracellular APEC (superscript of t-statistic)", "setting": "[9]; O78, HD11, 6 h", "value": "a (0.5X MIC)"}, {"measurement": "minimal effective concentration", "setting": "[10]; Escherichia coli, O78, Caco-2, 6 h treatment, read-out: SMs intracellular APEC clearance concentration", "value": 100, "unit": "µM"}, {"measurement": "intracellular APEC clearance concentration as multiple of MIC (superscript)", "setting": "[10]; O78, Caco-2", "value": "a (1X MIC)"}, {"measurement": "concentration at which the SM significantly (P < 0.01) reduced intracellular APEC (superscript of t-statistic)", "setting": "[10]; O78, Caco-2, 6 h", "value": "b (1X MIC)"}, {"measurement": "minimal effective concentration", "setting": "[11]; Escherichia coli, O78, THP-1, 6 h treatment, read-out: SMs intracellular APEC clearance concentration", "value": 100, "unit": "µM"}, {"measurement": "intracellular APEC clearance concentration as multiple of MIC (superscript)", "setting": "[11]; O78, THP-1", "value": "a (1X MIC)"}, {"measurement": "concentration at which the SM significantly (P < 0.01) reduced intracellular APEC (superscript of t-statistic)", "setting": "[11]; O78, THP-1, 6 h", "value": "a (0.5X MIC)"}, {"measurement": "minimal effective concentration", "setting": "[12]; Escherichia coli, O1, HD11, 6 h treatment, read-out: SMs intracellular APEC clearance concentration", "value": 200, "unit": "µM"}, {"measurement": "concentration at which the SM significantly (P < 0.01) reduced intracellular APEC (superscript of t-statistic)", "setting": "[12]; O1, HD11, 6 h", "value": "b (1X MIC)"}, {"measurement": "minimal effective concentration", "setting": "[13]; Escherichia coli, O2, THP-1, 6 h treatment, read-out: SMs intracellular APEC clearance concentration", "value": 100, "unit": "µM"}, {"measurement": "concentration at which the SM significantly (P < 0.01) reduced intracellular APEC (superscript of t-statistic)", "setting": "[13]; O2, THP-1, 6 h", "value": "a (0.5X MIC)"}, {"measurement": "minimal effective concentration", "setting": "[14]; Escherichia coli, O1, THP-1, 6 h treatment, read-out: SMs intracellular APEC clearance concentration", "value": "> 200", "unit": "µM"}, {"measurement": "concentration at which the SM significantly (P < 0.01) reduced intracellular APEC (superscript of t-statistic)", "setting": "[14]; O1, THP-1, 6 h", "value": "b (1X MIC)"}, {"measurement": "minimal effective concentration", "setting": "[15]; Escherichia coli, O1, Caco-2, 6 h treatment, read-out: SMs intracellular APEC clearance concentration", "value": "> 200", "unit": "µM"}, {"measurement": "concentration at which the SM significantly (P < 0.01) reduced intracellular APEC (superscript of t-statistic)", "setting": "[15]; O1, Caco-2, 6 h", "value": "b (1X MIC)"}, {"measurement": "MBEC as multiple of MIC (superscript)", "setting": "[16]; 18 h challenge in M63 media", "value": "d (4X MIC)"}, {"measurement": "MBEC as multiple of MIC", "setting": "[16]; tested 0.5X to 8X MIC", "value": 4, "unit": "X MIC"}]}
